Molecular target: T1, Human Polymorphonuclear Leukocyte Elastase (Homo sapiens, UniProt P08246)
T1 construct: Crude extract of human polymorphonuclear leukocytes (PMN) containing elastase activity; endogenous in cells; host or cells: human polymorphonuclear leukocytes (crude extract)
T1 sequence (P08246 30-267): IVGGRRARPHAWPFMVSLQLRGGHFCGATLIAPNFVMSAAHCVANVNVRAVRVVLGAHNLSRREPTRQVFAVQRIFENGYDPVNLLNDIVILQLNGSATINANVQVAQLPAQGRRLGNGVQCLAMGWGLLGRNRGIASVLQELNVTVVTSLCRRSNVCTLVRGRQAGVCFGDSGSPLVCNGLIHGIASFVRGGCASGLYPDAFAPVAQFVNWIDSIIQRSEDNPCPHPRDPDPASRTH
Assay: Enzyme assay for inhibition of human PMN elastase via hydrolysis of Boc-AAPAN
Type: biochemical
Conditions: % decrease in ΔOD/min at 410 mμ within 2 minutes vs control, crude PMN extract; for inhibition at 50 µg/mL: Conc. of compound 50 μg/ml
Procedure: Protocol--Enzyme Assays for the Inhibition of Human Polymorphonuclear Leukocyte Elastase Via Hydrolysis of N-t-Boc-alanyl-alanyl-prolylanaline-pnitroanilide Reagents:
0.05M TES (N-tris[hydroxymethyl]methyl-2-amino-ethanesulfonic acid) Buffer, pH 7.5.
0.2 mM N-t-Boc-alanyl-alanyl-Prolyl-Alanine-p-nitroanilide (Boc-AAPAN).
To prepare substrate, the solid (m.w. 550) was first dissolved in 10.0 ml DMSO. Buffer at pH 7.5 was then added to a final volume of 100 ml.
Crude extract of human polymorphonuclear leukocytes (PMN) containing elastase activity.
Inhibitors (cephalosporins) to be tested dissolved in DMSO just before use.
To 1.0 ml of 0.2 mM Boc-AAPAN in a cuvette, 0.01-0.1 ml of DMSO with or without inhibitor was added. After mixing, a measurement was taken at 410 mμ to detect any spontaneous hydrolysis due to presence of test compound. 0.05 Milliliters of PMN extract was then added and the ΔOD/min at 410 mμ was measured and recorded. Beckman model 35 spectrophotometer was used.
The elastase activity in the crude PMN extract may vary from one preparation to another. A control of each new batch is run, and the volume added in the assay procedure is adjusted according to activity.

SMILES	inhibition at 50 µg/mL	inhibition at 5 µg/mL (Conc. of compound 5 μg/ml)	inhibition at 10 µg/mL (Conc. of compound 10 μg/ml)	inhibition at 25 µg/mL (Conc. of compound 25 μg/ml)
C=CCCOC(=O)C1=C(COC(C)=O)CSC2C(NC(=O)Cc3cccs3)C(=O)N12 (centres unmarked)	56%	–	–	–
C=CCCOC(=O)C1=C(COC(N)=O)CSC2N1C(=O)C2(NC(=O)Cc1cccs1)OC (centres unmarked)	50%	–	–	–
COC1(NC(=O)Cc2cccs2)C(=O)N2C(C(=O)OCC(=O)COC(=O)C(C)(C)C)=C(COC(N)=O)CSC21 (centres unmarked)	37%	–	–	–
COC1(NC(=O)CSCC#N)C(=O)N2C(C(=O)OC3OC(=O)c4ccccc43)=C(CSc3nnnn3C)CSC21 (centres unmarked)	41%	–	–	–
CO[C@@]1(NC(=O)CSCC#N)C(=O)N2C(C(=O)OCOC(=O)C(C)(C)C)=C(CSc3nnnn3C)CSC21 (some centres unmarked)	81%	41%	53%	78%
